Experimental data as given in the supplement of paper PMC10307832.

Tests used:
Test in all cases: relative viability (nuclei count vs DMSO), 5 days (fraction); higher = more cells survive
Sulindac + Tozasertib = compound: CC1=C(CC(=O)O)c2cc(F)ccc2/C1=C\c1ccc([S+](C)[O-])cc1 [Sulindac] + Cc1cc(Nc2cc(N3CCN(C)CC3)nc(Sc3ccc(NC(=O)C4CC4)cc3)n2)n[nH]1 [Tozasertib] (partner 0.1 µM)
How it was run: (§1)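 Cells from lung cancer lines were seeded into 1536-well plates and, one day later, dosed by pin tool. Treatments were either a single drug or a fixed dose of an anchor drug with five library-drug doses (not always all listed) in √10 steps. After 5 days, nuclei were stained in a one-step fixation (final 0.05% Triton X-100, 1% formaldehyde, 1 ug/ml Hoechst) and counted on 4× images, and relative viability is the treated-to-vehicle nuclei ratio, as the median of duplicate plates.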

[1] = compound: O=c1[nH]cc(F)c(=O)[nH]1 [5-Fluorouracil] + Nc1ncn([C@H]2C[C@H](O)[C@@H](CO)O2)c(=O)n1 [Decitabine] (partner 2 µM)
How it was run: as §1

Staurosporine + OSI-027 = compound: CN[C@@H]1C[C@H]2O[C@@](C)([C@@H]1OC)n1c3ccccc3c3c4c(c5c6ccccc6n2c5c31)C(=O)NC4 [Staurosporine] + COc1cccc2cc(-c3nc([C@H]4CC[C@H](C(=O)O)CC4)n4ncnc(N)c34)[nH]c12 [OSI-027] (partner 0.5 µM)
How it was run: as §1

[2] = compound: O=c1[nH]cc(F)c(=O)[nH]1 [5-Fluorouracil] + C[C@]1(O)C[C@@H](c2nc(-c3ccc4ccc(-c5ccccc5)nc4c3)c3c(N)nccn32)C1 [Linsitinib] (partner 1 µM)
How it was run: as §1

| Cell Line | relative viability (Sulindac + Tozasertib; first compound 0.08 µM) | relative viability (Sulindac + Tozasertib; first compound 0.253 µM) | relative viability (Sulindac + Tozasertib; first compound 0.8 µM) | relative viability (Sulindac + Tozasertib; first compound 2.53 µM) | relative viability (Sulindac + Tozasertib; first compound 8 µM) | relative viability ([1]; first compound 0.02 µM) | relative viability ([1]; first compound 0.2 µM) | relative viability ([1]; first compound 0.6325 µM) | relative viability ([1]; first compound 2 µM) | relative viability (Staurosporine + OSI-027; first compound 0.005 µM) | relative viability (Staurosporine + OSI-027; first compound 0.05 µM) | relative viability (Staurosporine + OSI-027; first compound 0.1581 µM) | relative viability (Staurosporine + OSI-027; first compound 0.5 µM) | relative viability ([2]; first compound 0.02 µM) | relative viability ([2]; first compound 0.2 µM) | relative viability ([2]; first compound 0.6325 µM) | relative viability ([2]; first compound 2 µM) | relative viability (Staurosporine + OSI-027; first compound 0.01581 µM) |
| --- | --- | --- | --- | --- | --- | --- | --- | --- | --- | --- | --- | --- | --- | --- | --- | --- | --- | --- |
| NCI-H522 | 0.676 | 0.643 | 0.541 | 0.502 | 0.575 | 0.642 | 0.58 | 0.622 | 0.722 | 0.814 | 0.606 | 0.497 | 0.538 |  |  |  |  |  |
| NCI-H1944 | 0.258 | 0.263 | 0.254 | 0.247 | 0.259 | 0.472 | 0.399 | 0.268 | 0.183 | 0.322 | 0.257 | 0.166 | 0.119 | 1.13 | 1.19 | 0.497 | 0.27 | 0.153 |
| PC-14 | 0.605 | 0.659 | 0.538 | 0.575 | 0.685 | 0.265 | 0.229 | 0.25 | 0.275 | 0.325 | 0.0618 | 0.0552 | 0.0305 | 0.938 | 0.943 | 0.765 |  | 0.0499 |
| NCI-H1650 | 0.456 | 0.381 |  | 0.287 | 0.426 | 0.573 | 0.473 | 0.348 | 0.271 | 0.357 | 0.142 | 0.168 |  |  |  |  |  | 0.187 |
| HCC-827 | 0.485 | 0.432 | 0.435 | 0.418 | 0.466 | 0.298 | 0.431 | 0.36 | 0.297 | 0.875 | 0.476 | 0.383 | 0.211 | 0.909 | 0.95 | 0.57 | 0.405 | 0.672 |
| HCC-366 | 0.104 | 0.148 | 0.199 | 0.111 | 0.198 | 0.344 | 0.32 | 0.194 | 0.128 | 0.952 | 0.463 | 0.0332 | 0.0243 | 0.673 | 0.82 | 0.254 | 0.0796 |  |
| HARA | 0.0822 | 0.0844 | 0.121 | 0.0886 | 0.103 | 0.519 | 0.533 | 0.605 | 0.488 | 0.448 | 0.128 | 0.0628 | 0.0398 | 0.963 | 1.02 | 0.885 | 0.891 |  |
| NCI-H441 | 0.763 | 0.773 | 0.593 | 0.725 | 0.667 | 0.252 | 0.226 | 0.254 | 0.26 | 0.368 | 0.175 | 0.176 | 0.137 | 0.51 | 0.519 | 0.397 | 0.301 | 0.188 |
| CAL-12T | 0.253 | 0.282 | 0.322 | 0.301 | 0.365 |  |  |  |  | 0.196 | 0.166 | 0.152 | 0.09 | 0.487 | 0.87 | 0.673 | 0.412 | 0.142 |
| NCI-H2228 | 0.222 | 0.248 | 0.242 | 0.294 | 0.262 |  |  |  |  | 0.689 | 0.188 | 0.0855 | 0.0902 | 0.443 | 0.627 | 0.48 | 0.36 | 0.273 |
| A549 |  |  |  |  |  | 0.296 | 0.264 | 0.252 | 0.224 |  |  |  |  | 0.633 | 0.652 | 0.301 | 0.119 |  |
| NCI-H1648 | 0.397 | 0.482 | 0.345 | 0.415 | 0.389 | 0.541 | 0.528 | 0.47 | 0.371 | 0.245 | 0.207 | 0.293 | 0.314 |  |  |  |  | 0.199 |
| NCI-H1623 | 0.392 | 0.458 | 0.421 | 0.418 | 0.429 |  |  |  |  | 0.517 | 0.547 | 0.441 | 0.304 |  |  |  |  | 0.542 |
| Calu-6 |  |  |  |  |  |  |  |  |  |  |  |  |  | 0.975 | 1.01 | 0.82 | 0.61 |  |
| NCI-H1563 |  |  |  |  |  |  |  |  |  | 0.65 | 0.562 | 0.523 | 0.488 | 1.08 | 1.25 | 1.12 | 0.994 | 0.573 |
| NCI-H2342 | 0.447 | 0.492 | 0.513 | 0.397 | 0.583 | 0.726 | 0.682 | 0.698 | 0.739 | 0.702 | 0.438 | 0.402 | 0.37 |  |  |  |  | 0.482 |
| NCI-H1299 |  |  |  |  |  |  |  |  |  |  |  |  |  | 1.09 | 0.982 | 0.825 | 0.59 |  |
| ChaGo-K-1 | 0.228 | 0.197 | 0.24 | 0.217 | 0.241 | 0.573 | 0.519 | 0.435 | 0.439 | 0.678 | 0.553 | 0.135 | 0.118 |  |  |  |  | 0.203 |
| SW 900 |  | 0.516 |  | 0.462 | 0.585 | 0.415 | 0.362 | 0.407 | 0.431 | 0.334 | 0.204 | 0.108 | 0.0798 |  |  |  |  | 0.182 |
| NCI-H1792 |  |  |  |  |  | 0.514 | 0.473 | 0.27 | 0.202 |  | 0.347 | 0.282 | 0.323 | 0.554 | 0.484 | 0.14 | 0.0794 | 0.635 |
| NCI-H1703 |  |  |  |  |  |  |  |  |  |  |  |  |  | 0.665 | 1.16 | 0.856 | 0.484 |  |
| EBC-1 |  |  |  |  |  |  |  |  |  |  |  |  |  | 0.859 | 0.928 | 0.814 | 0.605 |  |
| IA-LM |  |  |  |  |  |  |  |  |  |  |  |  |  | 0.597 | 0.485 | 0.175 | 0.213 |  |
| NCI-H2170 | 0.791 | 0.928 | 0.797 | 0.675 | 0.719 | 0.501 | 0.451 | 0.439 | 0.328 | 0.815 | 0.576 | 0.175 | 0.0943 |  |  |  |  |  |
